According to ChEMBL document CHEMBL1201862, “PubChem BioAssay data set” (2004):
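The compound was tested at five concentrations on cells cultured in 96-well plates, with a 48-hour exposure period. Here, GI50 denotes the concentration required for 50% inhibition of growth.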 Activity calls are given as the source filed them. Cut-off read from the data, not from the text of the source: active = GI50 up to about 1.1 µM and inactive = higher.

What was measured:
Experiment in all cases: growth of human tumour cells (NCI), 48 h
[1] = system: A498
[2] = system: UACC-62
[3] = system: SK-MEL-5
[4] = system: M14
[5] = system: OVCAR-3
[6] = system: OVCAR-8
[7] = system: HCT-15
[8] = system: HT-29
[9] = system: SNB-19
[10] = system: LOX IMVI
[11] = system: SF-268
[12] = system: HCT-116
[13] = system: 786-0
[14] = system: HL-60
[15] = system: SNB-75
[16] = system: SN12C
[17] = system: KM12
[18] = system: NCI-H460

Row | Structure (SMILES) | GI50 [1] | GI50 [2] | GI50 [3] | GI50 [4] | GI50 [5] | GI50 [6] | GI50 [7] [µM] | GI50 [8] | GI50 [9] | GI50 [10] | GI50 [11] | GI50 [12] | GI50 [13] | GI50 [14] | GI50 [15] | GI50 [16] | GI50 [17] | GI50 [18]
1 | CCOC(=O)Nc1[nH]cc(-c2ccccc2)c1C#N | > 100 µM (inactive) | > 100 µM (inactive) | > 100 µM (inactive) | > 100 µM (inactive) | > 100 µM (inactive) | > 100 µM (inactive) | > 100 | > 100 µM (inactive) | > 100 µM (inactive) | > 100 µM (inactive) | > 100 µM (inactive) | > 100 µM (inactive) | > 100 µM (inactive) | > 100 µM (inactive) | > 100 µM (inactive) | > 100 µM (inactive) | > 100 µM (inactive) | –
2 | O=C(Cc1cccs1)N[C@@H]1C(=O)N2C(C(=O)OC(c3ccccc3)c3ccccc3)=C(CO)CS[C@H]12 | > 100 µM (inactive) | > 100 µM (inactive) | > 100 µM (inactive) | > 100 µM (inactive) | > 100 µM (inactive) | > 100 µM (inactive) | 92.7 | – | – | > 100 µM (inactive) | – | > 100 µM (inactive) | > 100 µM (inactive) | 46.6 µM (inactive) | – | > 100 µM (inactive) | 38.1 µM (inactive) | 75.2 µM (inactive)
3 | C#CC(O)/C=C/C(O)CCCC(O)CC#CC(O)C#CC(O)CCCC(O)/C=C/CCCCCC(=O)CCCCCCCCCCCCCC(O)C(O)C#CC(=O)O (configuration not stated) | > 50 µM (inactive) | > 50 µM (inactive) | > 50 µM (inactive) | > 50 µM (inactive) | – | > 50 µM (inactive) | > 50 | 19.3 µM (inactive) | > 50 µM (inactive) | 12.8 µM (inactive) | > 50 µM (inactive) | > 50 µM (inactive) | > 50 µM (inactive) | 26.8 µM (inactive) | 12.3 µM (inactive) | > 50 µM (inactive) | > 50 µM (inactive) | > 50 µM (inactive)
4 | COC(C/C(=C/CO[Si](C(C)C)(C(C)C)C(C)C)C(=O)N(COCC[Si](C)(C)C)c1ccccc1I)OC | > 100 µM (inactive) | 15.6 µM (inactive) | 20.1 µM (inactive) | 26.6 µM (inactive) | 17.8 µM (inactive) | 89.5 µM (inactive) | 41.1 | 60.3 µM (inactive) | 26.1 µM (inactive) | 14.7 µM (inactive) | – | 13.2 µM (inactive) | 31.4 µM (inactive) | – | > 100 µM (inactive) | 71 µM (inactive) | 31.8 µM (inactive) | 33.4 µM (inactive)
5 | N#Cc1cccc(-n2[nH]c(=O)ccc2=O)c1 | – | > 100 µM (inactive) | > 100 µM (inactive) | > 100 µM (inactive) | > 100 µM (inactive) | > 100 µM (inactive) | > 100 | > 100 µM (inactive) | > 100 µM (inactive) | – | > 100 µM (inactive) | > 100 µM (inactive) | > 100 µM (inactive) | > 100 µM (inactive) | 59.7 µM (inactive) | – | > 100 µM (inactive) | > 100 µM (inactive)
6 | Cc1cccc2c(=O)c3cccc([C@@H](C)C(=O)O)c3oc12 | > 100 µM (inactive) | > 10 µM (inactive) | > 100 µM (inactive) | > 100 µM (inactive) | > 100 µM (inactive) | > 100 µM (inactive) | > 100 | > 100 µM (inactive) | > 100 µM (inactive) | > 100 µM (inactive) | > 100 µM (inactive) | > 100 µM (inactive) | > 100 µM (inactive) | > 100 µM (inactive) | – | > 100 µM (inactive) | > 100 µM (inactive) | > 100 µM (inactive)
7 | N#CCCC1(CCC#N)CCCCCCCCC(CCC#N)(CCC#N)C(=O)C1=O | – | > 100 µM (inactive) | – | > 100 µM (inactive) | > 100 µM (inactive) | > 100 µM (inactive) | > 100 | > 100 µM (inactive) | > 100 µM (inactive) | > 100 µM (inactive) | > 100 µM (inactive) | > 100 µM (inactive) | > 100 µM (inactive) | > 100 µM (inactive) | 63.8 µM (inactive) | > 100 µM (inactive) | > 100 µM (inactive) | > 100 µM (inactive)
